From PubChem BioAssay (NCI)
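Step 1: Grow cells in 96-well plates. Step 2: Expose to compound for 48 hours at 5 concentrations. Step 3: Interpolate endpoints linearly; if unreached, use highest concentration. TGI denotes the concentration required for complete inhibition of growth.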

Columns and labels:
Assay in all cases: NCI tumour cell line growth inhibition, 48 h
M14 melanoma = tested on: M14 melanoma
TK-10 renal = tested on: TK-10 renal
SF-295 CNS = tested on: SF-295 CNS
UACC-257 melanoma = tested on: UACC-257 melanoma
BT-549 breast = tested on: BT-549 breast
NCI/ADR-RES ovarian = tested on: NCI/ADR-RES ovarian
OVCAR-3 ovarian = tested on: OVCAR-3 ovarian
SK-MEL-28 melanoma = tested on: SK-MEL-28 melanoma
OVCAR-5 ovarian = tested on: OVCAR-5 ovarian
NCI-H522 lung = tested on: NCI-H522 lung
CCRF-CEM leukemia = tested on: CCRF-CEM leukemia
SK-OV-3 ovarian = tested on: SK-OV-3 ovarian
OVCAR-4 ovarian = tested on: OVCAR-4 ovarian
MOLT-4 leukemia = tested on: MOLT-4 leukemia
MDA-MB-435 = tested on: MDA-MB-435
ACHN renal = tested on: ACHN renal
HCC-2998 colon = tested on: HCC-2998 colon

Structure (SMILES) | TGI (M14 melanoma) | TGI (TK-10 renal) | TGI (SF-295 CNS) | TGI (UACC-257 melanoma) | TGI (BT-549 breast) | TGI (NCI/ADR-RES ovarian) | TGI (OVCAR-3 ovarian) | TGI (SK-MEL-28 melanoma) | TGI (OVCAR-5 ovarian) | TGI (NCI-H522 lung) | TGI (CCRF-CEM leukemia) | TGI (SK-OV-3 ovarian) | TGI (OVCAR-4 ovarian) | TGI (MOLT-4 leukemia) | TGI (MDA-MB-435) | TGI (ACHN renal) | TGI (HCC-2998 colon)
O=C(NNC(=O)c1ccccc1O)c1ccc(O)cc1 | > 100 µM | > 100 µM | > 100 µM | > 100 µM | > 100 µM | 90.9 µM | > 100 µM | > 100 µM | > 100 µM | 56.7 µM | > 100 µM | > 100 µM | > 100 µM | > 100 µM | > 100 µM | – | –
CC(=O)c1sc(=N)n(-c2c(C)cccc2C)c1C | > 100 µM | > 100 µM | – | – | > 100 µM | > 100 µM | > 100 µM | > 100 µM | > 100 µM | > 100 µM | > 100 µM | > 100 µM | > 100 µM | > 100 µM | > 100 µM | > 100 µM | > 100 µM
CN(C)Cc1cc(N=Nc2ccc(Cl)cc2)ccc1OC(=O)c1ccccc1 | – | 29.8 µM | 28.7 µM | 35.2 µM | 47.8 µM | 45.4 µM | 32.3 µM | 29.7 µM | 30.6 µM | 26.5 µM | 38.8 µM | – | 28.5 µM | 26.1 µM | 29.3 µM | 28.7 µM | 31 µM
CC1=NN(C(=O)CC(=O)Nc2cccc(Cl)c2)C(=O)C1N=Nc1ccc(C(=O)O)cc1 (stereo not drawn) | > 100 µM | > 100 µM | > 100 µM | > 100 µM | > 100 µM | > 100 µM | > 100 µM | > 100 µM | > 100 µM | > 100 µM | > 100 µM | – | > 100 µM | > 100 µM | > 100 µM | > 100 µM | > 100 µM
CN(C)CC1CN=C(NC(=O)Nc2ccccc2)O1 (stereo not drawn) | > 100 µM | > 100 µM | > 100 µM | > 100 µM | > 100 µM | > 100 µM | – | > 100 µM | > 100 µM | > 100 µM | > 100 µM | > 100 µM | > 100 µM | > 100 µM | > 100 µM | > 100 µM | > 100 µM
Cc1nc2c(=O)n3c4c(cccc4c2o1)CCC3 | > 100 µM | > 100 µM | > 100 µM | > 100 µM | > 100 µM | > 100 µM | > 100 µM | > 100 µM | > 100 µM | – | > 100 µM | > 100 µM | > 100 µM | > 100 µM | > 100 µM | > 100 µM | > 100 µM
O=C1c2ccccc2-c2c1c(-c1cccc(Br)c1)nc1ccc3ccccc3c21 | > 100 µM | – | > 100 µM | > 100 µM | > 100 µM | > 100 µM | > 100 µM | > 100 µM | > 100 µM | – | > 100 µM | > 100 µM | > 100 µM | > 100 µM | > 100 µM | > 100 µM | > 100 µM
